# “Also recorded” adds a separate entry of the source.
# How the values were obtained:
# [1] = system: C. elegans strain AM141 (Q40::YFP aggregates); assay: Q40::YFP aggregate foci in C. elegans strain AM141 (Huntington-like polyglutamine aggregation model); type: in vivo; details: for reduction of aggregate count (aggregate foci): strain AM141, Q40::YFP in muscle, FIG. 3
# From the text: C. elegans (AM141) adults were imaged at 7 days of adult age and quantified for intensity (FIG. 2A) and number (FIG. 2B) of Q40::YFP aggregates after 0, 1, 3, or 6 d of exposure to 50-nM PNR-5-02. Treated worms differ from untreated worms (“Days Tx”=0) by 2-tailed t test: *P<0.01; **P<1E-4.
# FIG. 3 depicts a graph showing reduction of protein aggregation in a C. elegans model of Huntington's disease or other neurodegenerative diseases featuring aggregates that contain polyglutamine tracts. Strain AM141, which expresses Q40::YFP in muscle, undergoes age-progressive accumulation of aggregate foci. PNR-5-02 analogues confer at least 30% reduction in formation of aggregate foci (****=P<0.00005 and *=P<0.01). PNR-5-18, PNR-4-44, PNR-5-58, and PNR-4-76 reduced aggregate count by ˜20%. PNR-5-02, PNR-4-87, PNR-5-56, and PNR-5-57 reduced aggregates ≥30%.
# (§1) Several panels of drugs were tested for their ability to protect against formation of protein aggregates in the following model systems: (i) a cell-culture model of Alzheimer-like protein aggregation (SH-SY5Y-APPSw, a human neuroblastoma cell line expressing the Swedish mutation of Amyloid Precursor Protein (APP), and thus predisposed to form β-amyloid aggregates; (ii) C. elegans strain CL4176, a model of Alzheimer-like amyloidopathy that can be induced to express human Aβ1-42 in muscle, and declines sharply in motility 24-42 hours after induction unless protected by effective drugs; (iii) C. elegans strain CL2355, a model of Alzheimer-like amyloidopathy that expresses human Aβ1-42 in all neurons after upshift induction (as in ii, above), and consequently loses its normal chemotactic responses; (iv) C. elegans strain NL5901, a model of Parkinson's disease that expresses α-synuclein::GFP in neurons, forming fluorescent aggregates with age; aggregates are scored by number and intensity of GFP foci, or scored for neuron loss with age by dye-filling; and (v) C. elegans strain AM141, a model of Huntington-like polyglutamine aggregation, which expresses Q40::YFP (a 40-glutamine tract fused in-frame to yellow fluorescent protein) in muscle cells and accumulates aggregates during aging.
# SH-SY5Y-APPSw cells = assay: Thioflavin-T amyloid staining in SH-SY5Y-APPSw neuroblastoma cells; type: cell-based, human; details: for reduction of Thioflavin-fluorescence intensity: 48 hours drug treatment, amyloid fluorescence per nucleus, P<0.0001
# Protocol: FIG. 7 depicts a graph showing PNR-5-02 analogues reduce amyloid accumulation in human neuroblastoma cells overexpressing amyloid precursor protein (APPSw). SH-SY5Y-APPSw, human neuroblastoma cells overexpressing a mutant amyloid precursor protein (APPsw) associated with familial AD. Elevated APPSw leads to substantial formation of amyloid plaque, visualized by fluorescence microscopy after Thioflavin-T staining on day 3 of culture.
# as §1
# Human neuroblastoma cells (SH-SY5Y-APPsw), express the Swedish mutant of Amyloid Precursor Protein (APPsw) and therefore are predisposed to form amyloid aggregate. […] Amyloid fluorescence is then divided by the number of nuclei, to obtain relative amyloid content per cell.
# BRI-Aβ42 mice = assay: Sarcosyl-insoluble protein aggregates in cerebral cortex of BRI-Aβ42 mice; type: in vivo
# Protocol: Total protein and sarcosyl-insoluble protein aggregates were prepared from cerebral cortex of […] mice, treated as in FIG. 4. Aliquots were separated on SDS-acrylamide gels and stained with Sypro Ruby (Molecular Probes). Gel lanes were scanned, and for each aggregate-protein lane the integral of intensity was normalized to the integral for total protein. *P<0.03 by 1-tailed heteroscedastic t test.
# Total protein and total sarcosyl-insoluble aggregates were isolated from cerebral cortex of BRI-Aβ42 mice, sacrificed after 10 daily IP injections with PNR-5-02 (as above) or vehicle. Protein aliquots were suspended in Laemmli buffer and resolved by SDS-acrylamide gel electrophoresis, and quantitated by protein-specific fluorescent staining. Results, presented in FIG. 5 as the percent of aggregate protein after normalization to total protein from the same sample, indicate an 18% reduction in aggregates for PNR-5-02-treated mice. Larger aggregates (at the top of each gel lane) were reduced >40%.
# C. elegans = C. elegans life span; type: in vivo
# Protocol: FIG. 8 depicts a graph showing that PNR-5-02 increase C. elegans life span. The effect of PNR-5-02 on C. elegans life span, at different concentrations both mean and maximum life span of the nematode life span is extended by 15%.
# Synchronized eggs (expected to hatch at approximately the same time) were placed on 60-mm nutrient-agar plates to which either vehicle (0.013% DMSO, v/v) for controls or PNR-5-02 (10 μM in 0.013% DMSO) was added. Worms were transferred to fresh plates daily for 7 days, and on alternate days thereafter, scoring worms as alive if they moved spontaneously or in response to gentle prodding. Worms lost for reasons other than natural death were censored (removed from mortality calculations) from that date. PNR-5-02 extended the nematode life span by 15% (FIG. 8).
# C. elegans strain CL4176 = C. elegans strain CL4176 amyloidopathy model (human Aβ1-42 in muscle, motility); type: in vivo; details: CL4176, decline in motility 24-42 hours after induction
# Protocol: as §1
# C. elegans strain CL2355 = C. elegans strain CL2355 amyloidopathy model (human Aβ1-42 in all neurons, chemotaxis); type: in vivo; details: CL2355, loss of chemotactic responses
# Protocol: as §1
# C. elegans strain NL5901 = C. elegans strain NL5901 Parkinson's disease model (α-synuclein::GFP aggregates); type: in vivo; details: NL5901, α-synuclein::GFP foci or neuron loss
# Protocol: as §1
# [2] = cerebral cortex, 10 daily IP injections 5.7 μmole/kg
# [3] = at different concentrations, FIG. 8
compound,measurement,setting,value
COc1cc(/C(C#N)=C/c2cc3ccccc3[nH]2)cc(OC)c1OC [PNR-4-44],reduction of aggregate count (aggregate foci),[1],~20%
COc1ccc(/C(C#N)=C/c2cc3ccccc3s2)cc1 [PNR-4-76],reduction of aggregate count (aggregate foci),[1],~20%
COc1ccc(/C(C#N)=C/c2c[nH]c3ccccc23)cc1OC [PNR-4-87],reduction of Thioflavin-fluorescence intensity,SH-SY5Y-APPSw cells,34%
COc1cc(/C(C#N)=C\c2cc3ccccc3s2)cc(OC)c1OC [PNR-5-02],protein aggregates in cerebral cortex (in words),"BRI-Aβ42 mice; FIG. 5, P<0.03 by 1-tailed heteroscedastic t test",reduces protein aggregates
same,reduction in sarcosyl-insoluble aggregates normalized to total protein,BRI-Aβ42 mice; [2],18%
same,reduction of larger aggregates (top of each gel lane),BRI-Aβ42 mice; [2],> 40%
same,life span extension,"C. elegans; 10 μM in 0.013% DMSO, from eggs",15%
same,maximum life span extension,C. elegans; [3],15%
same,mean life span extension,C. elegans; [3],15%
same,intensity and number of Q40::YFP aggregates,"[1]; AM141 adults imaged at 7 days of adult age, 1 d exposure to 50-nM vs 6 d exposure",as effective in reducing AM141 aggregates as 6-days exposure; also recorded: reduces Q40 aggregated in just 1 day
same,protection against formation of protein aggregates,"[1]; C. elegans AM141, Q40::YFP aggregates",protective
same,protection against formation of protein aggregates,C. elegans strain CL4176,protective
same,protection against formation of protein aggregates,"SH-SY5Y-APPSw cells; SH-SY5Y-APPSw, β-amyloid aggregates",protective
same,protection against formation of protein aggregates,C. elegans strain CL2355,protective
same,protection against formation of protein aggregates,C. elegans strain NL5901,protective
COc1cc(/C(C#N)=C/c2coc3ccccc23)cc(OC)c1OC [PNR-5-18],reduction of aggregate count (aggregate foci),[1],~20%
COc1cc(OC)cc(/C(C#N)=C/c2nc3ccccc3s2)c1 [PNR-5-58],reduction of aggregate count (aggregate foci),[1],~20%
same,reduction of Thioflavin-fluorescence intensity,SH-SY5Y-APPSw cells,54%
